{
  "source": "patent US11534437B2",
  "about": "“Methods of treating radiation induced gastrointestinal syndrome (RIGS) and related disease states using compound 512” (BCN Biosciences L.L.C., priority 2017, dated 2022)",
  "key": {"plasma cytokines": {"system": "plasma cytokines", "test": "Plasma cytokine levels in rodents after lower thoracic radiation", "format": "in vivo", "conditions": "LTI + 512, 5 mg/kg 512", "source_text": "Ctl, control with no treatment. LTI, lower thoracic radiation, LTI+512, radiation, and 512. The cytokine phenotype is anti-inflammatory where IL-6 is an anti-inflammatory cytokine required for controlling local or systemic acute inflammatory responses and IL-1 is pro inflammatory and so forth."}, "[1]": {"system": "HEK293 cells having TCF/LEF luciferase reporter construct", "test": "TCF/LEF luciferase reporter assay for canonical WNT activity", "format": "cell-based", "conditions": "LiCl 10 mM, 24 hr", "method": "To determine the canonical WNT activity in 512 (28.78 μM) HEK293 cells having TCF/LEF luciferase reporter construct were treated with 512 or vehicle control. LiCl (10 mM) treatment was used as positive control for luciferase activity. Luciferase activity was determined 24 hr after using Dual-Luciferase® Reporter Assay System (Promega) as per manufacturer's protocol. HEK293 cells having FOPFLASH construct were used as negative control. […] WNT-β catenin signaling is well known to promote the self renewal and differentiation of LGR5+ epithelial (lung, oral, intestinal) stem cells."}},
  "data": [
    {"smiles": "O=[N+]([O-])c1ccc(S(=O)(=O)N2CCN(c3ccccc3)CC2)cc1", "note": "[Compound 512, 1-[(4-nitrobenezene)sulfonyl]-4-phenyl piperazine]", "values": [
      {"measurement": "plasma IL-6 level", "setting": "plasma cytokines; Ctl 7, LTI 15", "value": 88},
      {"measurement": "plasma KC level", "setting": "plasma cytokines; Ctl 10, LTI 210", "value": 245},
      {"measurement": "plasma IL-23 level", "setting": "plasma cytokines; Ctl 13, LTI 79", "value": 23},
      {"measurement": "plasma MCP-1 level", "setting": "plasma cytokines; Ctl 17, LTI 103", "value": 77},
      {"measurement": "plasma MIP-1b level", "setting": "plasma cytokines; Ctl 25, LTI 88", "value": 13},
      {"measurement": "plasma IL-1b level", "setting": "plasma cytokines; Ctl 32, LTI 50", "value": 7}
    ]},
    {"smiles": "[Cl-].[Li+]", "note": "[LiCl]", "values": [
      {"measurement": "luciferase activity (positive control)", "setting": "[1]", "value": "significant increase in Luciferase activity"}
    ]}
  ]
}
